The values that follow come from article PMC6495176, “Steroidal antibiotics are antimetabolites of Acanthamoeba steroidogenesis with phylogenetic implications” (Journal of Lipid Research, 2019).

For data set [1], the target named is T1, 24-AcSMT (Acanthamoeba castellanii, UniProt L8GNG7).
T1 construct: gene ACA1_193300; recombinant 24-AcSMT (XP_004336540) expressed in E. coli, lysate preparation
Description: steady-state inhibition of cycloartenol methylation by recombinant enzyme; also turned over to ERGT (GC-MS). It counts as biochemical.

Data set [2] concerns the target T2, 28-AcSMT (Acanthamoeba castellanii, UniProt L8GKC5).
T2 construct: gene ACA1_237870; recombinant 28-AcSMT (XP_004335307) expressed in E. coli, lysate preparation
Briefly: steady-state inhibition of […]([…])-methylene lophenol methylation by recombinant enzyme, GC-MS; partition ratio and substrate protection. It counts as biochemical.

For data set [3], the target named is T3, 28-AcSMT (Acanthamoeba castellanii, UniProt L8GKC5).
T3 construct: gene ACA1_237870
T3 sequence (L8GKC5 1-346): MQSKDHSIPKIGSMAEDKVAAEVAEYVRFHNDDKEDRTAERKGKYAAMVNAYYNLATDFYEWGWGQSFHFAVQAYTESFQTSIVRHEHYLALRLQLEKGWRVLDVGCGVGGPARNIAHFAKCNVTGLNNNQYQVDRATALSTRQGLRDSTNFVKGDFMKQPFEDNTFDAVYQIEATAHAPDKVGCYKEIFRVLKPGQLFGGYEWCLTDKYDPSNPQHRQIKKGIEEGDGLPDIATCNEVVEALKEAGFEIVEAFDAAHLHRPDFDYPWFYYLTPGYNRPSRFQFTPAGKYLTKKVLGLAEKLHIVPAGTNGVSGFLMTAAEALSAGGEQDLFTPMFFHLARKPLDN
Description: MALDI-TOF mass shift and retention of 3H-label after Ni-NTA purification; GC-MS of diol products. It counts as binding.

The target of data set [4] is T1, 24-AcSMT. Description: native substrate in steady-state SMT assay (Km). It counts as biochemical. To be noted: cited from earlier work.
Substrate in data set [5]: C=C(CC[C@@H](C)[C@H]1CC[C@H]2C3=CC[C@H]4[C@H](C)[C@@H](O)CC[C@]4(C)[C@H]3CC[C@]12C)C(C)C
Briefly: cells, lysate or membranes. As to conditions: SAM active site. It counts as biochemical, Acanthamoeba castellanii.

T1 sequence (L8GNG7 entry or part of it): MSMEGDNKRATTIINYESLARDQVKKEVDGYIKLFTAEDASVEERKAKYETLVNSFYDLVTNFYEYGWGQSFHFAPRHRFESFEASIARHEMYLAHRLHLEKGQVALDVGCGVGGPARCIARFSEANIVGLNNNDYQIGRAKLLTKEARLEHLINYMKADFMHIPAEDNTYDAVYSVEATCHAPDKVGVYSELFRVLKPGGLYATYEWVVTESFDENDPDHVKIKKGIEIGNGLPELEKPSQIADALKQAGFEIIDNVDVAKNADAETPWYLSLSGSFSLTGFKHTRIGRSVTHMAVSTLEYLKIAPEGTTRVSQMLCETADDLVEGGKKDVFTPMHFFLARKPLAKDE

On to `CC(C)=C/C=C/[C@@H](C)[C@H]1CC[C@H]2C3=CC=C4C[C@@H](O)CC[C@]4(C)[C@H]3CC[C@]12C` [CHT], for which the Ki on 24-AcSMT [1] came out at 18 µM; at 28-AcSMT [2] it was 8 µM. For `C=C(/C=C/[C@@H](C)[C@H]1CC[C@H]2C3=CC=C4C[C@@H](O)CC[C@]4(C)[C@H]3CC[C@]12C)C(C)C` [compound 15, ergosta-5,7,22,24(28)-tetraen-3-ol], the “MALDI-TOF mass shift and retention of 3H-label after Ni-NTA purification; GC-MS” value on 28-AcSMT [3] is recorded as “irreversible nature of the ERGT-28-AcSMT complex was further confirmed by MALDI-TOF analysis showing an increase in molecular mass”.

Regarding `CC(C)=CCC[C@@H](C)[C@H]1CC[C@@]2(C)[C@@H]3CC[C@H]4C(C)(C)[C@@H](O)CC[C@@]45C[C@@]35CC[C@]12C` [cycloartenol], the Km on 24-AcSMT [4] is 48 µM.

B1: 28-AcSMT (Acanthamoeba castellanii str. Neff) (protein)
chain: T3 sequence (L8GKC5 1-346)
notes: recombinant 28-AcSMT (XP_004335307) expressed in E. coli, lysate preparation
Take B1: in data set [5], the Michaelis constant (Km) was found to be 44 µM.

The term Ki denotes the equilibrium dissociation constant of an inhibitor or competing ligand from its target. Broadly, the Km is the substrate concentration at which the rate is half of its maximum.
